Tested on: all wired variants (GDH-S247PDAz, FGM-S247PDAz, FGM-T558PDAz, FGM-S247PCA)
Conditions: read-out: KM^app of all samples (electrochemical); glucose; range over all wired variants; 300 mV vs. Ag/AgCl

**Q.** Which Km does the source give for `OC[C@H]1OC(O)[C@H](O)[C@@H](O)[C@@H]1O` (stereo partly shown) [glucose] here?
**A.** 1550 to 1890 µM

Reference: US12359238B2 (priority 2017, dated 2025)
